The source made the active and inactive calls. The calls are words filed in the database; no cut-off is given here.
Tests used:
[1] = molecular target: T1, Apoptosis regulator Bcl-2 (Homo sapiens, UniProt P10415); assay: Inhibition of GST fused Bcl-2 binding to biotinylated 26 mer Bak-BH3 peptide by HTRF-LANCE assay
[2] = molecular target: T1, Apoptosis regulator Bcl-2; assay: Inhibition of GST fused Bcl-2 binding to biotinylated 16 mer Bak-BH3 peptide by HTRF-LANCE assay
[3] = molecular target: Bcl-2-like protein 1 (Bcl-xL) (Homo sapiens) (UniProt Q07817); assay: Inhibition of GST fused Bcl-xL binding to biotinylated 26 mer Bak-BH3 peptide at 10 uM by HTRF-LANCE assay
[4] = molecular target: Bcl-2-like protein 1 (Bcl-xL) (Homo sapiens) (UniProt Q07817); assay: Inhibition of GST fused Bcl-xL binding to biotinylated 26 mer Bak-BH3 peptide at 30 uM by HTRF-LANCE assay
[5] = molecular target: Bcl-2-like protein 1 (Bcl-xL) (Homo sapiens) (UniProt Q07817); assay: Inhibition of GST fused Bcl-xL binding to biotinylated 16 mer Bak-BH3 peptide at 30 uM by HTRF-LANCE assay
[6] = molecular target: T1, Apoptosis regulator Bcl-2; details: 30 uM
Description: Inhibition of GST fused Bcl-2 binding to biotinylated 16 mer Bak-BH3 peptide at 30 uM by HTRF-LANCE assay

[7] = molecular target: T1, Apoptosis regulator Bcl-2; assay: Inhibition of GST fused Bcl-2 binding to biotinylated 26 mer Bak-BH3 peptide at 10 uM by HTRF-LANCE assay
[8] = molecular target: Bcl-2-like protein 1 (Bcl-xL) (Homo sapiens) (UniProt Q07817); assay: Inhibition of GST fused Bcl-xL binding to biotinylated 16 mer Bak-BH3 peptide at 33 uM by HTRF-LANCE assay

Chain of Bcl-2-like protein 1 (Bcl-xL) (Homo sapiens) (Q07817 whole entry, looked up, the tested form may be a part): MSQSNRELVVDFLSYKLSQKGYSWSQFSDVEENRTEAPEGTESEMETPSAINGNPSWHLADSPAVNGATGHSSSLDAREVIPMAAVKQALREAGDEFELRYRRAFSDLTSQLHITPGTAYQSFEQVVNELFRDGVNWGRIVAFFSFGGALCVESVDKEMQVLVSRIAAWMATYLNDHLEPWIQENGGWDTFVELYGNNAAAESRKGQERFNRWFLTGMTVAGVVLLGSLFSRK
T1 sequence (P10415 whole entry, the tested form may be a part): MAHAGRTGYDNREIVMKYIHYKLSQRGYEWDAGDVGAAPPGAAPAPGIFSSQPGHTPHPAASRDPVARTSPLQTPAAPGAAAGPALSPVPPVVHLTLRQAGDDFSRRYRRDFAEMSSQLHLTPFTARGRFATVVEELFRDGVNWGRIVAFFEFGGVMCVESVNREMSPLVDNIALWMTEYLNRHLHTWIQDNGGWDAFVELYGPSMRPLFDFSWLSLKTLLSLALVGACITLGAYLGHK

Row | SMILES | IC50 [1] [nM] | IC50 [2] [nM] | other results
1 | CCCCN(CCCC)C(=O)c1cc(C)n(-c2ccc(NC(=O)CSc3ccccc3)cc2C(=O)N2CCc3ccccc3C2)n1 | 600 | – | –
2 | COC(=O)C[C@@H]1Cc2ccccc2CN1C(=O)c1ccccc1-n1nc(C(=O)N(c2ccccc2)c2ccccc2)cc1C | – | 280 | –
3 | CCCCN(CCCC)C(=O)c1nn(-c2ccc(N)cc2C(=O)N2Cc3ccccc3C[C@H]2CN)c(C)c1Cl | 380 | – | –
4 | CCOC(=O)[C@@H]1Cc2ccccc2CN1C(=O)c1ccccc1-n1nc(C(=O)N(c2ccccc2)c2ccccc2)cc1C | – | 5610 | –
5 | Cc1cc(C(=O)N(c2ccccc2)c2ccccc2)nn1-c1ccccc1C(=O)N1Cc2ccccc2C[C@H]1CN(C)C | – | 150 | –
6 | Cc1cc(C(=O)N(c2ccccc2)c2ccccc2)nn1-c1ccccc1C(=O)N1Cc2ccccc2C[C@H]1C | – | 110 | –
7 | Cc1cc(C(=O)N2CCc3ccccc3C2)nn1-c1ccccc1C(=O)N1CCc2ccccc2C1 | – | 1500 | –
8 | CCCCN(CCCC)C(=O)c1nn(-c2ccc(NC(=O)Cc3ccccc3)cc2C(=O)N2CCc3ccccc3C2)c(C)c1Cl | 270 | 40 | –
9 | Cc1cc(C(=O)N(c2ccccc2)c2ccccc2)nn1-c1ccccc1C(=O)N1Cc2ccccc2C[C@H]1CO | – | 190 | –
10 | Cc1cc(C(=O)N(c2ccccc2)c2ccccc2)nn1-c1ccccc1C(=O)N1Cc2ccccc2C[C@H]1CN | – | 110 | –
11 | CC(=O)NC[C@@H]1Cc2ccccc2CN1C(=O)c1ccccc1-n1nc(C(=O)N(c2ccccc2)c2ccccc2)cc1C | – | 730 | –
12 | CCN(CC)C(=O)c1nn(-c2ccccc2C(=O)N2Cc3ccccc3C[C@H]2CO)c(C)c1Br | 17300 | 3670 | inhibition [3]: 14%
13 | Cc1c(Cl)c(C(=O)N(c2ccccc2)c2ccccc2)nn1-c1ccccc1C(=O)N1Cc2ccccc2C[C@H]1CO | 480 | 50 | inhibition [4]: 29%
14 | CCCCN(CCCC)C(=O)c1cc(C)n(-c2ccc(OCC(=O)O)cc2C(=O)N2CCc3ccccc3C2)n1 | 130 | 10 | –
15 | Cc1c(Cl)c(C(=O)N(c2ccccc2)c2ccccc2)nn1-c1ccccc1C(=O)N1Cc2ccccc2C[C@H]1CN | 100 | 30 | inhibition [4]: 28%
16 | Cc1cc(C(=O)Nc2ccccc2)nn1-c1ccccc1C(=O)N1CCc2ccccc2C1 | – | 50000 | –
17 | Cc1cc(C(=O)N(c2ccccc2)c2ccccc2)nn1-c1ccccc1C(=O)N1Cc2ccccc2C[C@@H]1C | – | – | inhibition [5]: 4%; inhibition [6]: 27%
18 | Cc1cc(C(=O)N(C)Cc2ccccc2)nn1-c1ccccc1C(=O)N1CCc2ccccc2C1 | – | – | Activity [2]: inactive
19 | Cc1c(Cl)c(C(=O)N(CC(F)(F)F)CC(F)(F)F)nn1-c1ccccc1C(=O)N1Cc2ccccc2C[C@H]1CO | – | – | inhibition [4]: 4%; inhibition [5]: 13%; inhibition [7]: 6%
20 | Cc1cc(C(=O)N(c2ccccc2)C2CCCCC2)nn1-c1ccccc1C(=O)N1CCc2ccccc2C1 | – | 1400 | –
21 | CCCCN(CCCC)C(=O)c1nn(-c2ccccc2C(=O)N2Cc3ccccc3C[C@H]2CO)c(C)c1Cl | 780 | 100 | –
22 | CCCCN(CCCC)C(=O)c1nn(-c2ccccc2C(=O)N2Cc3ccccc3C[C@H]2CN)c(C)c1Cl | 160 | 20 | –
23 | Cc1cc(C(=O)N(c2ccccc2)c2ccccc2)nn1-c1ccccc1C(=O)N1Cc2ccccc2C[C@H]1CNS(C)(=O)=O | – | 1050 | inhibition [8]: 40%
24 | CCCCN(CCCC)C(=O)c1nn(-c2ccc(NS(=O)(=O)Cc3ccccc3)cc2C(=O)N2CCc3ccccc3C2)c(C)c1Cl | – | – | inhibition [3]: 19%
25 | CCCCN(CCCC)C(=O)c1nn(-c2ccc(NC(=O)COc3ccccc3)cc2C(=O)N2CCc3ccccc3C2)c(C)c1Cl | 130 | 40 | –
26 | CNC[C@@H]1Cc2ccccc2CN1C(=O)c1ccccc1-n1nc(C(=O)N(c2ccccc2)c2ccccc2)cc1C | – | 140 | –
27 | COC[C@@H]1Cc2ccccc2CN1C(=O)c1ccccc1-n1nc(C(=O)N(c2ccccc2)c2ccccc2)cc1C | – | 160 | –
28 | CCCCN(CCCC)C(=O)c1cc(C)n(-c2ccc(OCC(=O)c3ccccc3)cc2C(=O)N2CCc3ccccc3C2)n1 | 330 | 20 | –
29 | CCCCN(CCCC)C(=O)c1cc(C)n(-c2ccc(NC(=O)COc3ccccc3)cc2C(=O)N2CCc3ccccc3C2)n1 | 510 | – | –
30 | Cc1c(Br)c(C(=O)N(c2ccccc2)c2ccccc2)nn1-c1ccccc1C(=O)N1Cc2ccccc2C[C@H]1CO | 210 | 40 | inhibition [4]: 9%
